The subject of this experiment is pancreatic adenocarcinoma cell line, ATCC number CRL-2119. Nature of the experiment: Number of pancreatic adenocarcinoma cells in culture, counted by microscope. In kind it is cell-based, human. The source says: The pancreatic adenocarcinoma cell line, ATCC number CRL-2119, was derived in 1985 from a nude mouse xenograft of a primary tumor removed from the head of the pancreas. It is a moderate to well-differentiated pancreatic adenocarcinoma of ductal origin. These pancreatic adenocarcinoma cells are stimulated to proliferate in culture by insulin, insulin-like growth factor I (IGF-I), epidermal growth factor (EGF), and transforming growth factor alpha (TGF alpha). These adenocarcinoma cells contain significant concentrations of tumor-associated antigens CEA, CA 125, and CA 19-9. In culture, these adenocarcinoma cells form monolayers of morphologically heterogeneous polar epithelial cells. These cells are tumorgenic in that they form tumors in athymic nude mice at the site of inoculation that are histologically similar to the tumor of origin.
Propagation of these cells was in Dulbecco's modified Eagle's plus Ham's F12-A 1:1 mixture of Dulbecco's modified Eagle's medium and Ham's F12 medium containing 1.2 g/L of sodium bicarbonate (Sigma Chemical Co., St. Louis, Mo.) supplemented with 15 mM HEPES and fetal bovine serum, 10%, at a temperature of 37° C. as recommended by the ATCC.
These pancreatic adenocarcinoma cells were subcultured (passaged) by removing spent (i.e., old) medium by aspiration, and then adding calcium and magnesium free Hank's Balanced Salt Solution with 0.25% trypsin and 0.03% ethylenediaminetetracetic acid (EDTA). The culture was allowed to sit at room temperature for 2 to 5 minutes. Fresh medium was added to the adenocarcinoma cells which were dispensed into new flasks, with subculture every 6 to 8 days. The growth medium was changed every three days.
After these adenocarcinoma cells were subcultured for 24 hours, they were then seeded to coverslips and transferred to 24 microwell plates (NUCOLON, Roskilde Denmark), with 1 ml Dulbeco Modified Eagle's (DME)/[…] nutrient culture media (Sigma Chemical Co.) with 10% fetal bovine serum (Atlanta Biologicals, Norcross, Ga.). After 24 hours, wells were washed twice with Dulbecco's Modified Eagle's/Ham's F12 with 0.1% bovine serum albumin (Sigma-Aldrich, St. Louis, Mo.) and allowed to incubate in this serum free medium for an additional 24 hour period of serum deprivation. Serum-free media was utilized to remove all variables (EGF, etc.) present in serum in order that interpretation of any data obtained would be straightforward. After 24 hours of serum deprivation, media volume was reduced to 250 μL per well with or without the respective peptide hormones at their 1 μM concentrations (1% of this volume). The adenocarcinoma cells were then incubated for various periods of time (24, 48, 72, and 96 hours).At the end of the above time periods, hematoxylin was added for 5 minutes to make the cells more visible for counting, and then they were washed for 5 minutes. The coverslips were then placed face down on microscope slides with the addition of 6 μl of histologic grade phosphate buffered saline (PBS)/I-glycine that had been filtered immediately before use with a 0.22 μm polyethersulfone, nonpyrogenic, sterile, low protein binding membrane (Corning 43117, Corning Inc., Corning, N.Y.). The number of adenocarcinoma cells were then counted with a cell counter evaluating ten fields of the microscope slide at 40× along the X-axis with an Olympus BH-2 microscope (Atlanta, Ga.). This evaluation was repeated on six separate occasions with the number of adenocarcinoma cells reflecting 60 observations for each group, i.e., 60 observations for controls and 60 observations for each of the four groups with respective peptide hormones. The only variable in this investigation was whether one of the four peptide hormones was added to the pancreatic adenocarcinoma cells. Otherwise all the adenocarcinoma cells were treated the same, i.e., with same culture medium, time of incubation, and processing of cells for the various investigations. […]

Turning to “vessel dilator: a.a. 31-67 of the 126 a.a. ANP prohormone; peptide hormone from Peninsula Laboratories”, the “decrease in the number of adenocarcinoma cells” value is recorded as 65% (1 μM, 24 hours, vs untreated cells); 70% (1 μM, 72 hours, vs untreated cells); 70% (1 μM, 96 hours, vs untreated cells); 70% (time not stated). Further, the “number of adenocarcinoma cells” value (1 μM, 24 hours, untreated 183.4+/−8) is 63.8+/−4 cells per high powered field. For the same substance, under “1 μM, 48 hours”, the “number of cancer cells compared to controls” value came to 68%.

Values taken from patent US6943147B2, “Cancer treatment using proANP peptides” (University of South Florida, priority 2003, dated 2005).
